# Assays:
# [1] = target: T1, Sodium-dependent serotonin transporter (Homo sapiens, UniProt P31645); experiment: Displacement of [3H]paroxetine from SERT
# [2] = target: Sodium-dependent dopamine transporter (Homo sapiens, UniProt Q01959); experiment: Inhibitory activity against DAT
# [3] = target: Sodium-dependent noradrenaline transporter (Homo sapiens, UniProt P23975); experiment: Inhibitory activity against NET
# [4] = target: T1, Sodium-dependent serotonin transporter; experiment: Inhibitory activity against SERT
# Sequence of Sodium-dependent noradrenaline transporter (P23975 whole entry): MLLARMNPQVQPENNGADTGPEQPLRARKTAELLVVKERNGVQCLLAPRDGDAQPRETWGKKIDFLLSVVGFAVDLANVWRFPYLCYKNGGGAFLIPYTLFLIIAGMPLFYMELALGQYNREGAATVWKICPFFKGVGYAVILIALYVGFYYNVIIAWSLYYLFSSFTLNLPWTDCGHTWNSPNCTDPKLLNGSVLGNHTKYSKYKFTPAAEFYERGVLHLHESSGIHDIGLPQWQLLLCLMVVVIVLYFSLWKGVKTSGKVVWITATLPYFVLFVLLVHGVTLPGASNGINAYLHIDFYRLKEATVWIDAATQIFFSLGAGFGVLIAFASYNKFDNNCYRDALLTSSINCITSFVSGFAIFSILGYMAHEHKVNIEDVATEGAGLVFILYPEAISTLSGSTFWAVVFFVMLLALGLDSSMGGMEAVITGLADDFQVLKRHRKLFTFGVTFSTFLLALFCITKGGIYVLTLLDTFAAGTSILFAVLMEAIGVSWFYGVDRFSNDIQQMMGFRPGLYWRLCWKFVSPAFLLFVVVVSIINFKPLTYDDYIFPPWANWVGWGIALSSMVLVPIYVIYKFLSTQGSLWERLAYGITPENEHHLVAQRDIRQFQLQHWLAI
# T1 sequence (P31645 whole entry): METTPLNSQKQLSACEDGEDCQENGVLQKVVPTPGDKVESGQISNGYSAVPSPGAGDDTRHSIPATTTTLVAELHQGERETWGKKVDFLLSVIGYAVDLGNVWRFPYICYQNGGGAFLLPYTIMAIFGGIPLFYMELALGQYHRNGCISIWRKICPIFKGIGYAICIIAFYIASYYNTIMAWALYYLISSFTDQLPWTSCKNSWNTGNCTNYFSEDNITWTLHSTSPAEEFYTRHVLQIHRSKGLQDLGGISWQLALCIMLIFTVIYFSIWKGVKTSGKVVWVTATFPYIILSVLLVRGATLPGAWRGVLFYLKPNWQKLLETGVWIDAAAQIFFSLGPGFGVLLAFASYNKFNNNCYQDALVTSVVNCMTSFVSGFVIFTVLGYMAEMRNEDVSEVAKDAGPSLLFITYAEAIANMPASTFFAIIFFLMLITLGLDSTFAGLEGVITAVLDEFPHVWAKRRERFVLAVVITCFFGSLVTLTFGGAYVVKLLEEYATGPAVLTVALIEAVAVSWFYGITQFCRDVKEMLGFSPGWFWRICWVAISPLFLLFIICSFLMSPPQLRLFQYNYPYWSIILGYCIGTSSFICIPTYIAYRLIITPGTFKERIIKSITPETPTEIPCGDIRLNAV
# Sequence of Sodium-dependent dopamine transporter (Q01959 whole entry): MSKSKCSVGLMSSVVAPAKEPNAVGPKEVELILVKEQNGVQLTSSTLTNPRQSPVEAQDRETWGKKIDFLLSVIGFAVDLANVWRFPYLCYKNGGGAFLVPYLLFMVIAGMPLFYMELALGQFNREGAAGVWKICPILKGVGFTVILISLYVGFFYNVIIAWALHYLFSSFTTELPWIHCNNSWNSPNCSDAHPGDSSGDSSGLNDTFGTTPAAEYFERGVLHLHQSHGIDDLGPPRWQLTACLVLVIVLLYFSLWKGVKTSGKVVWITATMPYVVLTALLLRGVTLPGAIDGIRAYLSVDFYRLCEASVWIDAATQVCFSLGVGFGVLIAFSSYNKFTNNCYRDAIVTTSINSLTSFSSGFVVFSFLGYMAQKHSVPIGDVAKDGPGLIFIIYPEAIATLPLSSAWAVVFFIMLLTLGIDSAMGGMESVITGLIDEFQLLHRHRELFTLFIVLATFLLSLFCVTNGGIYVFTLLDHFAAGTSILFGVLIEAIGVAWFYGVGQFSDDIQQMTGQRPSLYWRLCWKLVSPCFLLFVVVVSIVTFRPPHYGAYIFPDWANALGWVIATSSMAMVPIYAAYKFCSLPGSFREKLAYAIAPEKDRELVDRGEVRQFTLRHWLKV
SMILES,Ki [1],IC50 [2],IC50 [3],IC50 [4]
Cc1ccc(Oc2ccccc2CN(C)C)c(N)c1,0.53 nM,> 100 nM,> 100 nM,–
Cc1ccc(N(C)c2ccccc2CN(C)C)c(N)c1,–,> 100 nM,> 100 nM,> 100 nM
Cc1ccc(N(c2ccccc2)c2ccccc2CN(C)C)c(N)c1,–,> 100 nM,> 100 nM,> 100 nM
Cc1ccc(S(=O)(=O)c2ccccc2CN(C)C)c(N)c1,–,> 100 nM,> 100 nM,> 100 nM
Cc1ccc([S+]([O-])c2ccccc2CN(C)C)c(N)c1 (centres undefined),4.15 nM,> 100 nM,> 100 nM,–
Cc1ccc(Nc2ccccc2CN(C)C)c(N)c1,10.3 nM,> 100 nM,> 100 nM,–
Cc1ccc(N(Cc2ccccc2)c2ccccc2CN(C)C)c(N)c1,–,> 100 nM,> 100 nM,> 100 nM
CCN(c1ccc(C)cc1N)c1ccccc1CN(C)C,–,> 100 nM,> 100 nM,> 100 nM
Cc1ccc(N)c(-c2ccccc2CN(C)C)c1,–,> 100 nM,> 100 nM,> 100 nM

# Continued, values first:
Ki [1],IC50 [2],IC50 [3],IC50 [4],SMILES
1.65 nM,> 100 nM,> 100 nM,–,Cc1ccc(Sc2ccccc2CN(C)C)c(N)c1
–,> 100 nM,> 100 nM,> 100 nM,Cc1ccc(C(O)c2ccccc2CN(C)C)c(N)c1 (centres undefined)
–,> 100 nM,> 100 nM,> 100 nM,COC(c1ccc(C)cc1N)c1ccccc1CN(C)C (centres undefined)
–,> 100 nM,> 100 nM,> 100 nM,Cc1ccc(C(=O)c2ccccc2CN(C)C)c(N)c1
